Results taken from patent publication US20240148733A1, “COMBINATION THERAPY” (Genentech, Inc., priority 2021, published 2024).

Columns and labels:
Test in all cases: Drug combination assay (CellTiter-Glo cell viability)
Assay type in all cases: cell-based
H2030 cells (KRAS G12C) = conditions: six days, 96-wells
Procedure: (§1) Cells were seeded in either 96-well or 384-well plates 16 h before treatment at a density of 1000 cells per well. Then, cells were treated with varying concentrations of compound(s) as indicated in FIGS. 1-8 (384-wells) and FIGS. 10-105 (96-wells), either a single agent or in combination, for six days. The relative number of viable cells was estimated using CellTiter-Glo Luminescent Cell Viability Assay (Promega, G7573). Total luminescence was detected on a Wallac Multilabel Reader (Perkin-Elmer).

[1] = system: H358 parental cells (KRAS G12C); conditions: six days, 96-wells
Procedure: as §1

[2] = system: H358 resistant cells (KRAS G12C); conditions: six days, 96-wells
Procedure: as §1

H2122 cells (KRAS G12C) = conditions: six days, 384-wells
Procedure: as §1

[3] = combination with Compound K1 (a KRAS inhibitor)
[4] = combination with Compound K2 (a KRAS inhibitor)
[5] = combination with Compound K3 (a KRAS inhibitor)
[6] = combination with Compound K4 (a KRAS inhibitor)

Structure (SMILES): Cc1nccnc1-c1nn2c(=O)cc(-c3ccc(C4CCCCC4)cc3)[nH]c2c1C(=O)N1C[C@H](CF)[C@@H]1C (racemic) [Compound T9, 5-(4-cyclohexylphenyl)-2-(3-methylpyrazin-2-yl)-3-[rac-(2S,3S)-3-(fluoromethyl)-2-methyl-azetidine-1-carbonyl]-4H-pyrazolo[1,5-a]pyrimidin-7-one]
- % inhibition of H2030 cells (KRAS G12C) (H2030 cells (KRAS G12C); [3]): sensitizes cells resistant to Compound K1
- % inhibition of H2030 cells (KRAS G12C) (H2030 cells (KRAS G12C); [4]): sensitizes cells resistant to Compound K2
- % inhibition of H2030 cells (KRAS G12C) (H2030 cells (KRAS G12C); [5]): sensitizes cells resistant to Compound K3
- % inhibition of H2030 cells (KRAS G12C) (H2030 cells (KRAS G12C); [6]): sensitizes cells resistant to Compound K4
- % inhibition of H358 parental cells (KRAS G12C) [1, 3]: sensitizes cells resistant to Compound K1
- % inhibition of H358 parental cells (KRAS G12C) [1, 4]: sensitizes cells resistant to Compound K2
- % inhibition of H358 parental cells (KRAS G12C) [1, 5]: sensitizes cells resistant to Compound K3
- % inhibition of H358 parental cells (KRAS G12C) [1, 6]: sensitizes cells resistant to Compound K4
- combination effect on cell viability (qualitative) [2, 3]: sensitizes cells resistant to Compound K1
- combination effect on cell viability (qualitative) [2, 4]: sensitizes cells resistant to Compound K2
- combination effect on cell viability (qualitative) [2, 5]: sensitizes cells resistant to Compound K3
- combination effect on cell viability (qualitative) [2, 6]: sensitizes cells resistant to Compound K4

Structure (SMILES): C=CC(=O)Nc1cnc(OC)c(/C=C/[C@H]2CC[C@H](C(F)(F)F)CC2)c1 [Compound T3, N-(6-methoxy-5-((E)-2-((1r,4r)-4-(trifluoromethyl)cyclohexyl)vinyl)pyridin-3-yl)acrylamide]
- % inhibition of H2030 cells (KRAS G12C) (H2030 cells (KRAS G12C); [3]): sensitizes cells resistant to Compound K1
- % inhibition of H2030 cells (KRAS G12C) (H2030 cells (KRAS G12C); [4]): sensitizes cells resistant to Compound K2
- % inhibition of H2030 cells (KRAS G12C) (H2030 cells (KRAS G12C); [5]): sensitizes cells resistant to Compound K3
- % inhibition of H2030 cells (KRAS G12C) (H2030 cells (KRAS G12C); [6]): sensitizes cells resistant to Compound K4
- % inhibition of H358 parental cells (KRAS G12C) [1, 3]: sensitizes cells resistant to Compound K1
- % inhibition of H358 parental cells (KRAS G12C) [1, 4]: sensitizes cells resistant to Compound K2
- % inhibition of H358 parental cells (KRAS G12C) [1, 5]: sensitizes cells resistant to Compound K3
- % inhibition of H358 parental cells (KRAS G12C) [1, 6]: sensitizes cells resistant to Compound K4
- % inhibition of H2122 cells (KRAS G12C) (H2122 cells (KRAS G12C); [3]): sensitizes cells resistant to Compound K1
- % inhibition of H2122 cells (KRAS G12C) (H2122 cells (KRAS G12C); [4]): sensitizes cells resistant to Compound K2
- combination effect on cell viability (qualitative) [2, 3]: sensitizes cells resistant to Compound K1
- combination effect on cell viability (qualitative) [2, 4]: sensitizes cells resistant to Compound K2
- combination effect on cell viability (qualitative) [2, 5]: sensitizes cells resistant to Compound K3
- combination effect on cell viability (qualitative) [2, 6]: sensitizes cells resistant to Compound K4

Structure (SMILES): C=C(CNc1cc(-c2ccc(C(C)C)cc2)c2c(c1C#N)CCO2)C(=O)O [Compound T4, 2-(((4-cyano-7-(4-isopropylphenyl)-2,3-dihydrobenzofuran-5-yl)amino)methyl)acrylic acid]
- % inhibition of H2122 cells (KRAS G12C) (H2122 cells (KRAS G12C); [3]): sensitizes cells resistant to Compound K1
- % inhibition of H2122 cells (KRAS G12C) (H2122 cells (KRAS G12C); [4]): sensitizes cells resistant to Compound K2

Structure (SMILES): COc1cnc(C(=O)NCc2cccc(CC(=O)N(C)CCOCCOCCOCCOCCOc3ccc4c(c3)C(=O)N(C3CCC(=O)NC3=O)C4=O)c2)cc1/C=C/[C@H]1CC[C@H](C(F)(F)F)CC1 (stereo partly drawn) [Compound T5, N-[[3-[2-[2-[2-[2-[2-[2-[2-(2,6-dioxo-3-piperidyl)-1,3-dioxo-isoindolin-5-yl]oxyethoxy]ethoxy]ethoxy]ethoxy]ethyl-methyl-amino]-2-oxo-ethyl]phenyl]methyl]-5-methoxy-4-[rac-(E)-2-[4-(trifluoromethyl)cyclohexyl]vinyl]pyridine-2-carboxamide]
- % inhibition of H2030 cells (KRAS G12C) (H2030 cells (KRAS G12C); [3]): sensitizes cells resistant to Compound K1
- % inhibition of H2030 cells (KRAS G12C) (H2030 cells (KRAS G12C); [4]): sensitizes cells resistant to Compound K2
- % inhibition of H2030 cells (KRAS G12C) (H2030 cells (KRAS G12C); [5]): sensitizes cells resistant to Compound K3
- % inhibition of H2030 cells (KRAS G12C) (H2030 cells (KRAS G12C); [6]): sensitizes cells resistant to Compound K4
- % inhibition of H358 parental cells (KRAS G12C) [1, 3]: sensitizes cells resistant to Compound K1
- % inhibition of H358 parental cells (KRAS G12C) [1, 4]: sensitizes cells resistant to Compound K2
- % inhibition of H358 parental cells (KRAS G12C) [1, 5]: sensitizes cells resistant to Compound K3
- % inhibition of H358 parental cells (KRAS G12C) [1, 6]: sensitizes cells resistant to Compound K4
- combination effect on cell viability (qualitative) [2, 3]: sensitizes cells resistant to Compound K1
- combination effect on cell viability (qualitative) [2, 4]: sensitizes cells resistant to Compound K2
- combination effect on cell viability (qualitative) [2, 5]: sensitizes cells resistant to Compound K3
- combination effect on cell viability (qualitative) [2, 6]: sensitizes cells resistant to Compound K4

Structure (SMILES): C[C@@H](NC(=O)c1ccc2c(Oc3ccc(C(F)(F)F)cc3)cccc2c1)c1cccc(N)n1 [Compound T6, N-[(1R)-1-(6-amino-2-pyridyl)ethyl]-5-[4-(trifluoromethyl)phenoxy]naphthalene-2-carboxamide]
- % inhibition of H2030 cells (KRAS G12C) (H2030 cells (KRAS G12C); [3]): sensitizes cells resistant to Compound K1
- % inhibition of H2030 cells (KRAS G12C) (H2030 cells (KRAS G12C); [4]): sensitizes cells resistant to Compound K2
- % inhibition of H2030 cells (KRAS G12C) (H2030 cells (KRAS G12C); [5]): sensitizes cells resistant to Compound K3
- % inhibition of H2030 cells (KRAS G12C) (H2030 cells (KRAS G12C); [6]): sensitizes cells resistant to Compound K4
- % inhibition of H358 parental cells (KRAS G12C) [1, 3]: sensitizes cells resistant to Compound K1
- % inhibition of H358 parental cells (KRAS G12C) [1, 4]: sensitizes cells resistant to Compound K2
- % inhibition of H358 parental cells (KRAS G12C) [1, 5]: sensitizes cells resistant to Compound K3
- % inhibition of H358 parental cells (KRAS G12C) [1, 6]: sensitizes cells resistant to Compound K4
- combination effect on cell viability (qualitative) [2, 3]: sensitizes cells resistant to Compound K1
- combination effect on cell viability (qualitative) [2, 4]: sensitizes cells resistant to Compound K2
- combination effect on cell viability (qualitative) [2, 5]: sensitizes cells resistant to Compound K3
- combination effect on cell viability (qualitative) [2, 6]: sensitizes cells resistant to Compound K4

Structure (SMILES): C[C@H](NC(=O)c1ccc2c(-c3ccc(C(F)(F)F)cc3)cccc2c1)c1ccccn1 [Compound T7, N-[(1S)-1-(2-pyridyl)ethyl]-5-[4-(trifluoromethyl)phenyl]naphthalene-2-carboxamide]
- % inhibition of H2030 cells (KRAS G12C) (H2030 cells (KRAS G12C); [3]): sensitizes cells resistant to Compound K1
- % inhibition of H2030 cells (KRAS G12C) (H2030 cells (KRAS G12C); [4]): sensitizes cells resistant to Compound K2
- % inhibition of H2030 cells (KRAS G12C) (H2030 cells (KRAS G12C); [5]): sensitizes cells resistant to Compound K3
- % inhibition of H2030 cells (KRAS G12C) (H2030 cells (KRAS G12C); [6]): sensitizes cells resistant to Compound K4
- % inhibition of H358 parental cells (KRAS G12C) [1, 3]: sensitizes cells resistant to Compound K1
- % inhibition of H358 parental cells (KRAS G12C) [1, 4]: sensitizes cells resistant to Compound K2
- % inhibition of H358 parental cells (KRAS G12C) [1, 5]: sensitizes cells resistant to Compound K3
- % inhibition of H358 parental cells (KRAS G12C) [1, 6]: sensitizes cells resistant to Compound K4
- combination effect on cell viability (qualitative) [2, 3]: sensitizes cells resistant to Compound K1
- combination effect on cell viability (qualitative) [2, 4]: sensitizes cells resistant to Compound K2
- combination effect on cell viability (qualitative) [2, 5]: sensitizes cells resistant to Compound K3
- combination effect on cell viability (qualitative) [2, 6]: sensitizes cells resistant to Compound K4

Structure (SMILES): CNS(=O)(=O)c1ccc(Nc2ccc(C(F)(F)F)cc2)c(-c2cn(C)cn2)c1 [Compound T8, N-methyl-3-(1-methylimidazol-4-yl)-4-[4-(trifluoromethyl)anilino]benzenesulfonamide]
- % inhibition of H2030 cells (KRAS G12C) (H2030 cells (KRAS G12C); [3]): sensitizes cells resistant to Compound K1
- % inhibition of H2030 cells (KRAS G12C) (H2030 cells (KRAS G12C); [4]): sensitizes cells resistant to Compound K2
- % inhibition of H2030 cells (KRAS G12C) (H2030 cells (KRAS G12C); [5]): sensitizes cells resistant to Compound K3
- % inhibition of H2030 cells (KRAS G12C) (H2030 cells (KRAS G12C); [6]): sensitizes cells resistant to Compound K4
- % inhibition of H358 parental cells (KRAS G12C) [1, 3]: sensitizes cells resistant to Compound K1
- % inhibition of H358 parental cells (KRAS G12C) [1, 4]: sensitizes cells resistant to Compound K2
- % inhibition of H358 parental cells (KRAS G12C) [1, 5]: sensitizes cells resistant to Compound K3
- % inhibition of H358 parental cells (KRAS G12C) [1, 6]: sensitizes cells resistant to Compound K4
- combination effect on cell viability (qualitative) [2, 3]: sensitizes cells resistant to Compound K1
- combination effect on cell viability (qualitative) [2, 4]: sensitizes cells resistant to Compound K2
- combination effect on cell viability (qualitative) [2, 5]: sensitizes cells resistant to Compound K3
- combination effect on cell viability (qualitative) [2, 6]: sensitizes cells resistant to Compound K4

Structure (SMILES): Cn1cc2c3cc(C(=O)O)ccc3n(-c3ccc(C(F)(F)F)cc3)c2n1 [Compound T10]
- % inhibition of H2030 cells (KRAS G12C) (H2030 cells (KRAS G12C); [3]): sensitizes cells resistant to Compound K1
- % inhibition of H2030 cells (KRAS G12C) (H2030 cells (KRAS G12C); [4]): sensitizes cells resistant to Compound K2
- % inhibition of H2030 cells (KRAS G12C) (H2030 cells (KRAS G12C); [5]): sensitizes cells resistant to Compound K3
- % inhibition of H2030 cells (KRAS G12C) (H2030 cells (KRAS G12C); [6]): sensitizes cells resistant to Compound K4
- % inhibition of H358 parental cells (KRAS G12C) [1, 3]: sensitizes cells resistant to Compound K1
- % inhibition of H358 parental cells (KRAS G12C) [1, 4]: sensitizes cells resistant to Compound K2
- % inhibition of H358 parental cells (KRAS G12C) [1, 5]: sensitizes cells resistant to Compound K3
- % inhibition of H358 parental cells (KRAS G12C) [1, 6]: sensitizes cells resistant to Compound K4
- combination effect on cell viability (qualitative) [2, 3]: sensitizes cells resistant to Compound K1
- combination effect on cell viability (qualitative) [2, 4]: sensitizes cells resistant to Compound K2
- combination effect on cell viability (qualitative) [2, 5]: sensitizes cells resistant to Compound K3
- combination effect on cell viability (qualitative) [2, 6]: sensitizes cells resistant to Compound K4
